For 30 compounds, emission maximum results are on record in the Deep4Chem optical property database.

A short description of one data set: solvent given as SMILES. The conditions noted are these: in CCOC(C)=O.
On to `CC1=[N+]2C(=C(c3ccc(C=O)cc3)c3ccc(C)n3[B-]2(F)F)C=C1c1cc2n(c1)[B-](F)(F)[N+]1=CC=CC1=C2c1c(C)cc(C)cc1C`, for which the emission maximum amounted to 669 nm.

With `COc1ccc(C2=C3C(C)=CC(C)=[N+]3[B-](F)(F)n3c(/C=C/c4ccc(N(C)C)cc4)cc(C)c32)cc1`, the emission maximum stood at 665 nm.

For the compound `c1ccc(-c2nc(-c3ccccc3)nc(-c3ccc(-n4c5ccc(-c6ccc7oc8ccccc8c7c6)cc5c5cc(-c6ccc7oc8ccccc8c7c6)ccc54)cc3)n2)cc1`, the emission maximum stood at 476 nm.

`CCCN1C(=O)c2c3c(c4c(c2C1=O)CCc1cc(-c2ccc(N(C)C)cc2)c(OC)cc1-4)-c1cc(OC)c(-c2ccc(N(C)C)cc2)cc1CC3`: the emission maximum is recorded as 598 nm.

Compound `CC(C)(C)c1ccc(-c2nc3c4ccc(-c5cc6ccccc6c6ccccc56)cc4c4cc(-c5cc6ccccc6c6ccccc56)ccc4c3n2-c2ccc(C(C)(C)C)cc2)cc1` came in with an emission maximum of 388 nm.

The same data set, now with this note: in CCOCC.
Compound `CC(C)(C)c1ccc(-c2nc3c4ccc(-c5cccc6ccccc56)cc4c4cc(-c5cccc6ccccc56)ccc4c3n2-c2ccc(C(C)(C)C)cc2)cc1` came in with an emission maximum of 382 nm.

Compound `COc1ccc(C2=C3C(C)=CC(C)=[N+]3[B-](F)(F)n3c(/C=C/c4ccc(N(C)C)cc4)cc(C)c32)cc1` returned an emission maximum of 641 nm.

As to `CC(C)(C)c1ccc(-c2nc3c4ccc(-c5cc6ccccc6c6ccccc56)cc4c4cc(-c5cc6ccccc6c6ccccc56)ccc4c3n2-c2ccc(C(C)(C)C)cc2)cc1`, the emission maximum is 384 nm.

Staying with this data set, now noted: in CN(C)C=O.
`CC(C)(C)c1ccc(-c2nc3c4ccc(-c5cccc6ccccc56)cc4c4cc(-c5cccc6ccccc56)ccc4c3n2-c2ccc(C(C)(C)C)cc2)cc1` showed an emission maximum of 394 nm.

With `COc1cccc(-c2c3ccccc3c3n2[B-](F)(F)[N+]2=Cc4c5ccccc5c(-c5cccc(OC)c5)n4[B-](F)(F)[N+]2=C3)c1`, the emission maximum is reported as 603 nm.

Turning to `COc1ccc(C2=C3C(C)=CC(C)=[N+]3[B-](F)(F)n3c(/C=C/c4ccc(N(C)C)cc4)cc(C)c32)cc1`, the emission maximum is 718 nm.

As to `c1ccc(-c2nc(-c3ccccc3)nc(-c3ccc(-n4c5ccc(-c6ccc7oc8ccccc8c7c6)cc5c5cc(-c6ccc7oc8ccccc8c7c6)ccc54)cc3)n2)cc1`, the emission maximum is given as 529 nm.

Compound `CC(C)(C)c1ccc(-c2nc3c4ccc(-c5cc6ccccc6c6ccccc56)cc4c4cc(-c5cc6ccccc6c6ccccc56)ccc4c3n2-c2ccc(C(C)(C)C)cc2)cc1` returned an emission maximum of 404 nm.

The data set is the same for the next values; noted with them: in CO.
`CC(C)(C)c1ccc(-c2cc3c(-c4ccc(C(C)(C)C)cc4)c4cccc5c(-c6ccc(C(C)(C)C)cc6)cc6c(-c7ccc(C(C)(C)C)cc7)c7cccc2c7c3c6c54)cc1` had an emission maximum of 462 nm.

`Nc1ccc2ccc3cccc4ccc1c2c34` had an emission maximum of 428 nm.

`C/C(=N\Nc1ccc(C#N)cc1)c1cccc(/C(C)=N/Nc2ccc(C#N)cc2)c1` returned an emission maximum of 525 nm.

In turn, `Cc1cc(C)c(B(c2cc(-c3ccc(N(C)C)cc3)sc2-c2sc(-c3ccc(N(C)C)cc3)cc2P(=O)(c2ccccc2)c2ccccc2)c2c(C)cc(C)cc2C)c(C)c1` showed an emission maximum of 645 nm.

The compound `COc1ccc(C2=C3C(C)=CC(C)=[N+]3[B-](F)(F)n3c(/C=C/c4ccc(N(C)C)cc4)cc(C)c32)cc1` yielded an emission maximum of 696 nm.

`c1ccc(-c2cc(-c3ccc4ccc5cccc6ccc3c4c56)ccn2)nc1` displayed an emission maximum of 438 nm.

Still in this data set, the particulars now being: in CS(C)=O.
With `C/C(=N\Nc1ccc(C#N)cc1)c1cccc(/C(C)=N/Nc2ccc(C#N)cc2)c1`, the emission maximum is reported as 504 nm.

Compound `COc1ccc(-c2c3nc(cc4ccc([nH]4)c(-c4ccc(OC)c(OCCCC(=O)O)c4)c4nc(cc5ccc2[nH]5)CC4)CC3)cc1OCCCC(=O)O` registered an emission maximum of 738 nm.

As to `COc1ccc(C2=C3C(C)=CC(C)=[N+]3[B-](F)(F)n3c(/C=C/c4ccc(N(C)C)cc4)cc(C)c32)cc1`, the emission maximum came to 737 nm.

Staying with this data set, now noted: in Cc1ccccc1.
`CC(C)(C)c1ccc(-c2cc3c(-c4ccc(C(C)(C)C)cc4)c4cccc5c(-c6ccc(C(C)(C)C)cc6)cc6c(-c7ccc(C(C)(C)C)cc7)c7cccc2c7c3c6c54)cc1` returned an emission maximum of 467 nm.

Turning to `CC(C)(C)c1ccc(-c2nc3c4ccc(-c5cccc6ccccc56)cc4c4cc(-c5cccc6ccccc56)ccc4c3n2-c2ccc(C(C)(C)C)cc2)cc1`, the emission maximum is reported as 385 nm.

In turn, `COc1cccc(-c2c3ccccc3c3n2[B-](F)(F)[N+]2=Cc4c5ccccc5c(-c5cccc(OC)c5)n4[B-](F)(F)[N+]2=C3)c1` showed an emission maximum of 608 nm.

As to `CCCCCCCCc1ccc(-n2c3c(c4c2c2c(n4-c4ccc(CCCCCCCC)cc4)-c4ccccc4NB2c2ccccc2)B(c2ccccc2)Nc2ccccc2-3)cc1`, the emission maximum is 400 nm.

Compound `CCC1(CC)c2cc(/C=C/c3cc(C#N)c(/C=C/c4ccc5c(c4)C(CC)(CC)c4cc(N6c7ccccc7Sc7ccccc76)ccc4-5)cc3C#N)ccc2-c2ccc(N3c4ccccc4Sc4ccccc43)cc21` returned an emission maximum of 547 nm.

With `CCCCCCCCCCCCC(CCCCCCCCCC)Cn1c2cc(C=C(C#N)C#N)c3cccc4c5cccc6c(C=C(C#N)C#N)cc1c(c65)c2c34` (stereo not given), the emission maximum worked out at 623 nm.

For the compound `C=CC1CN2CCC1CC2[C@@H](OCc1ccccc1)c1ccnc2ccc(O)cc12` (stereo not given in full), the emission maximum was 355 nm.

Turning to `COc1ccc(C2=C3C(C)=CC(C)=[N+]3[B-](F)(F)n3c(/C=C/c4ccc(N(C)C)cc4)cc(C)c32)cc1`, the emission maximum is 640 nm.

Compound `CC(C)(C)c1ccc2c(c1)c1cc(C(C)(C)C)ccc1n2-c1ccc(-c2nc(-c3ccccc3)nc(-c3ccccc3)n2)c2c1c1ccccc1n2-c1ccccc1` registered an emission maximum of 417 nm.

For `c1ccc(-c2nc(-c3ccccc3)nc(-c3ccc(-n4c5ccc(-c6ccc7oc8ccccc8c7c6)cc5c5cc(-c6ccc7oc8ccccc8c7c6)ccc54)cc3)n2)cc1`, the emission maximum came out at 437 nm.

As for `CCCN1C(=O)c2c3c(c4c(c2C1=O)CCc1cc(-c2ccc(N(C)C)cc2)c(OC)cc1-4)-c1cc(OC)c(-c2ccc(N(C)C)cc2)cc1CC3`, the emission maximum was 548 nm.

With `CC(C)(C)c1ccc(-c2nc3c4ccc(-c5cc6ccccc6c6ccccc56)cc4c4cc(-c5cc6ccccc6c6ccccc56)ccc4c3n2-c2ccc(C(C)(C)C)cc2)cc1`, the emission maximum turned out to be 385 nm.

`c1ccc(-c2cc(-c3ccc4ccc5cccc6ccc3c4c56)ccn2)nc1` came in with an emission maximum of 393 nm.

Still in this data set, the particulars now being: in ClC(Cl)Cl.
As to `C(#Cc1ccccc1)C(C#Cc1ccccc1)=Cc1ccc(C=C(C#Cc2ccccc2)C#Cc2ccccc2)cc1`, the emission maximum worked out at 475 nm.

In the case of `C/C(=N\Nc1ccc(C#N)cc1)c1cccc(/C(C)=N/Nc2ccc(C#N)cc2)c1`, the emission maximum is given as 476 nm.

Regarding `CCn1c2ccccc2sc2c(C#N)c3[nH]c4ccccc4sc3c(C#N)c21`, the emission maximum is 615 nm.

As to `c1ccc(N(c2ccccc2)c2ccc(-c3ccc(-c4ccc(-c5cccs5)c5nsnc45)s3)cc2)cc1`, the emission maximum came to 670 nm.

As to `C(#Cc1cccs1)C(C#Cc1cccs1)=Cc1ccc(C=C(C#Cc2cccs2)C#Cc2cccs2)s1`, the emission maximum was 550 nm.

Turning to `COc1ccc(C2=C3C(C)=CC(C)=[N+]3[B-](F)(F)n3c(/C=C/c4ccc(N(C)C)cc4)cc(C)c32)cc1`, the emission maximum is 656 nm.

`CCCCn1c2ccc(-c3cccc(F)c3)cc2c2ccc3c4cc(-c5cccc(F)c5)ccc4n(CCCC)c3c21` had an emission maximum of 411 nm.

`CC(C)(C)NC(=O)c1ccc2ccc3cccc4ccc1c2c34` gave an emission maximum of 382 nm.

Staying with this data set, now noted: in ClC=C(Cl)Cl.
`CC(C)(C)c1ccc(-c2nc3c4ccc(-c5cccc6ccccc56)cc4c4cc(-c5cccc6ccccc56)ccc4c3n2-c2ccc(C(C)(C)C)cc2)cc1` displayed an emission maximum of 386 nm.

On to `CC(C)(C)c1ccc(-c2nc3c4ccc(-c5cc6ccccc6c6ccccc56)cc4c4cc(-c5cc6ccccc6c6ccccc56)ccc4c3n2-c2ccc(C(C)(C)C)cc2)cc1`, for which the emission maximum is recorded as 388 nm.

Staying with this data set, now noted: in ClCCl.
`CC(C)(C)c1ccc(-c2cc3c(-c4ccc(C(C)(C)C)cc4)c4cccc5c(-c6ccc(C(C)(C)C)cc6)cc6c(-c7ccc(C(C)(C)C)cc7)c7cccc2c7c3c6c54)cc1`: the emission maximum is reported as 467 nm.

In turn, `CCOC(=O)C1=C(C(=O)OCC)C2(c3ccccc3-c3ccccc32)[C@@H](c2ccccc2)C=C2c3cc(OC)c(OC)cc3CCN21` gave an emission maximum of 430 nm.

In turn, `CC(C)(C)c1ccc(-c2nc3c4ccc(-c5cccc6ccccc56)cc4c4cc(-c5cccc6ccccc56)ccc4c3n2-c2ccc(C(C)(C)C)cc2)cc1` yielded an emission maximum of 388 nm.

Compound `COc1cccc(-c2c3ccccc3c3n2[B-](F)(F)[N+]2=Cc4c5ccccc5c(-c5cccc(OC)c5)n4[B-](F)(F)[N+]2=C3)c1` had an emission maximum of 602 nm.

Regarding `CC(C)(C)OC(=O)N1CCN(c2ccc3c(-c4ccc(I)cc4)c4ccc(=[N+]5CCN(C(=O)OC(C)(C)C)CC5)cc-4oc3c2)CC1`, the emission maximum was determined as 585 nm.

In the case of `CC(C)(C)c1ccc2c(c1)c1cc(C(C)(C)C)ccc1n2-c1ccc(C#Cc2ccc3c4ccc(C#Cc5ccc(C=O)cc5)cc4n(-c4ccc(C(F)(F)F)cc4)c3c2)cc1`, the emission maximum amounted to 422 nm.

Consider `CCC1(CC)c2cc(/C=C/c3cc(C#N)c(/C=C/c4ccc5c(c4)C(CC)(CC)c4cc(N6c7ccccc7Sc7ccccc76)ccc4-5)cc3C#N)ccc2-c2ccc(N3c4ccccc4Sc4ccccc43)cc21`, for which the emission maximum is 520 nm.

`CCCCCCCCCCCCC(CCCCCCCCCC)Cn1c2cc(C=C(C#N)C#N)c3cccc4c5cccc6c(C=C(C#N)C#N)cc1c(c65)c2c34` (stereo not given) came in with an emission maximum of 635 nm.

Take `C=CC1CN2CCC1CC2[C@@H](OCc1ccccc1)c1ccnc2ccc(O)cc12` (stereo not given in full): the emission maximum is 363 nm.

Compound `CC(C)(C)c1ccc2c(c1)c1cc(C(C)(C)C)ccc1n2-c1ccc(-c2nc(-c3ccccc3)nc(-c3ccccc3)n2)c2c1c1ccccc1n2-c1ccccc1` registered an emission maximum of 474.77 nm.

For the compound `CCCN1C(=O)c2c3c(c4c(c2C1=O)CCc1cc(-c2ccc(N(C)C)cc2)c(OC)cc1-4)-c1cc(OC)c(-c2ccc(N(C)C)cc2)cc1CC3`, the emission maximum is listed as 613 nm.

Regarding `CC(C)(C)c1ccc(-c2nc3c4ccc(-c5cc6ccccc6c6ccccc56)cc4c4cc(-c5cc6ccccc6c6ccccc56)ccc4c3n2-c2ccc(C(C)(C)C)cc2)cc1`, the emission maximum is on record as 404 nm.

Still in this data set, the particulars now being: in O.
In the case of `O=S(=O)([O-])c1ccc2c(O)cc(S(=O)(=O)[O-])cc2c1`, the emission maximum is 385 nm.

Turning to `Nc1ccc2c(-c3ccc(C(=O)CN4C(=O)CCC4=O)cc3C(=O)[O-])c3ccc(=[NH2+])c(S(=O)(=O)[O-])c-3oc2c1S(=O)(=O)[O-]`, the emission maximum is given as 519 nm.

Consider `CC[n+]1c(-c2ccccc2)c2cc(NC(N)=O)ccc2c2ccc(NC(N)=O)cc21`, for which the emission maximum turned out to be 520 nm.
